Results taken from ChEMBL document CHEMBL5365432, “Anticancer Activities of DNA-Alkylating Pyrrole-Imidazole Polyamide Analogs Targeting RUNX Transcription Factors against p53-Mutated Pancreatic Cancer PANC-1 Cells” (J Med Chem, 2023).
Activity calls are given as the source filed them. The rule behind the calls is not given here.

Tests used:
DNA [1] = experiment: Binding affinity to DNA (unknown origin) assessed as formation of DNA alkylation product at 150 uM incubated for 18 hrs measured after 20 mins by HPLC/MALDI-TOF MS analysis; assay type: nucleic-acid assay; conditions: time 18.33 hrs
DNA [2] = experiment: Binding affinity to DNA (unknown origin) assessed as DNA alkylation at RUNX-binding site at 150 uM incubated for 18 hrs by HPLC analysis; assay type: nucleic-acid assay
PANC-1 [3] = experiment: Cytotoxicity against human PANC-1 cells assessed as cell viability at 3 uM incubated for 3 days by colorimetric assay relative to control; assay type: functional; conditions: PANC-1, 72 h, time 3 day, read-out: Activity
[4] = Cytotoxicity against human hTERT-HPNE cells assessed as cell viability at 3 uM incubated for 3 days by colorimetric assay relative to control; assay type: toxicity, cell-based; conditions: time 3 day, read-out: Activity
PANC-1 [5] = experiment: Induction of apoptosis in human PANC-1 cells assessed as viable cells at 3 uM incubated for 72 hrs by Annexin V-FITC/PI staining based flow cytometry (reference value: 94.3 %); assay type: functional; conditions: read-out: Activity
PANC-1 [6] = experiment: Induction of apoptosis in human PANC-1 cells assessed as early apoptotic cells at 3 uM incubated for 72 hrs by Annexin V-FITC/PI staining based flow cytometry (reference value: 1.5 %); assay type: functional
PANC-1 [7] = experiment: Induction of apoptosis in human PANC-1 cells assessed as late apoptotic cells at 3 uM incubated for 72 hrs by Annexin V-FITC/PI staining based flow cytometry (reference value: 2.9 %); assay type: functional
PANC-1 [8] = experiment: Induction of apoptosis in human PANC-1 cells assessed as necrotic cells at 3 uM incubated for 72 hrs by Annexin V-FITC/PI staining based flow cytometry (reference value: 1.2 %); assay type: functional
PANC-1 [9] = experiment: Induction of apoptosis in human PANC-1 cells assessed as suppression of BCL11A mRNA level at 3 uM incubated for 48 hrs by RT-qPCR analysis; assay type: functional, cell-based
PANC-1 [10] = experiment: Induction of apoptosis in human PANC-1 cells assessed as increase in phosphorylated p53 protein level at S15 residue at 3 uM incubated for 72 hrs by proteomic profiling array; assay type: functional, cell-based
PANC-1 [11] = experiment: Induction of apoptosis in human PANC-1 cells assessed as increase in phosphorylated p53 protein level at S46 residue at 3 uM incubated for 72 hrs by proteomic profiling array; assay type: functional, cell-based
PANC-1 [12] = experiment: Induction of apoptosis in human PANC-1 cells assessed as increase in phosphorylated p53 protein level at S392 residue at 3 uM incubated for 72 hrs by proteomic profiling array; assay type: functional, cell-based
PANC-1 [13] = experiment: Induction of apoptosis in human PANC-1 cells assessed as upregulation of TAp73 mRNA level at 3 uM incubated for 48 hrs by RT-qPCR analysis; assay type: functional, cell-based
PANC-1 [14] = experiment: Induction of apoptosis in human PANC-1 cells assessed as upregulation of TAp63 mRNA level at 3 uM incubated for 48 hrs by RT-qPCR analysis; assay type: functional, cell-based
PANC-1 [15] = experiment: Anti-cancer activity against human PANC-1 cells xenografted in CB17.Cg-PrkdcscidLystbg-j/CrlCrlj mouse assessed as reduction in tumor volume at 5 mg/kg, iv administered twice a week for 3 weeks; assay type: functional, organism-based
[16] = Toxicity in CB17.Cg-PrkdcscidLystbg-j/CrlCrlj mouse xenografted with human PANC-1 cells assessed as body weight loss at 5 mg/kg, iv administered twice a week for 3 weeks; assay type: organism-based; conditions: in vivo, 504 h
PANC-1 [17] = experiment: Anti-cancer activity against human PANC-1 cells xenografted in CB17.Cg-PrkdcscidLystbg-j/CrlCrlj mouse assessed as fold change in tumor volume at 1 mg/kg, iv administered twice a week for 3 weeks relative to gemcitabine; assay type: functional

Structure (SMILES) | Activity (DNA [1]) | Activity (DNA [2]) | viability at 3 µM (PANC-1 [3]) [%] | viability at 72 h, 3 µM [4] [%] | viability at 3 µM (PANC-1 [5]) [%] | Activity (PANC-1 [6]) [%] | Activity (PANC-1 [7]) [%] | Activity (PANC-1 [8]) [%] | Activity (PANC-1 [9]) | Activity (PANC-1 [10]) | Activity (PANC-1 [11]) | Activity (PANC-1 [12]) | Activity (PANC-1 [13]) | Activity (PANC-1 [14]) | Activity (PANC-1 [15]) | Activity [16] | fold change (FC) (PANC-1 [17])
CN(C)CCCNC(=O)c1cc(NC(=O)c2cc(NC(=O)c3cc(NC(=O)c4cc(NC(=O)CCCNC(=O)c5nc(NC(=O)c6cc(NC(=O)c7nc(NC(=O)c8nc(NC(=O)CCNC(=O)CCCc9ccc(N(CCCl)CCCl)cc9)cn8C)cn7C)cn6C)cn5C)cn4C)cn3C)cn2C)cn1C | Active | Active | 67.7 | 73.8 | 68.7 | 15 | 14 | 2.4 | Active | Active | Active | Active | Active | inactive | Active | Non-Toxic | 50
CN(C)CCCNC(=O)c1cc(NC(=O)c2cc(NC(=O)c3cc(NC(=O)c4cc(NC(=O)CCCNC(=O)c5nc(NC(=O)c6nc(NC(=O)c7cc(NC(=O)c8nc(NC(=O)CCNC(=O)CCCc9ccc(N(CCCl)CCCl)cc9)cn8C)cn7C)cn6C)cn5C)cn4C)cn3C)cn2C)cn1C | Active | inactive | 74.7 | 79.5 | 73.1 | 12.5 | 12.4 | 1.9 | Active | Active | Active | Active | Active | inactive | Active | Non-Toxic | –
CN(C)CCCNC(=O)c1nc(NC(=O)c2cc(NC(=O)c3nc(NC(=O)c4nc(NC(=O)CCCNC(=O)c5cc(NC(=O)c6cc(NC(=O)c7cc(NC(=O)c8cc(NC(=O)CCNC(=O)CCCc9ccc(N(CCCl)CCCl)cc9)cn8C)cn7C)cn6C)cn5C)cn4C)cn3C)cn2C)cn1C | Active | inactive | – | – | – | – | – | – | – | – | – | – | – | – | – | – | –
CN(C)CCCNC(=O)c1nc(NC(=O)c2nc(NC(=O)c3cc(NC(=O)c4nc(NC(=O)CCCNC(=O)c5cc(NC(=O)c6cc(NC(=O)c7cc(NC(=O)c8cc(NC(=O)CCNC(=O)CCCc9ccc(N(CCCl)CCCl)cc9)cn8C)cn7C)cn6C)cn5C)cn4C)cn3C)cn2C)cn1C | Active | Active | 85 | 82 | 78.5 | 10.8 | 9.1 | 1.6 | Active | Active | Active | Active | Active | Active | Active | Non-Toxic | 50
